One assay concerns K562 cells. The assay can be described thus: Cell cycle distribution / subG1 fraction, PI staining, flow cytometry. Particulars: K562, 2, 5, 10 nM, 48 h. In kind it is cell-based, human. As for the experimental part:
(§1) FIG. 5: Diverse human cell lines or cells were treated with different concentrations of Marbotinib (2 nM, 5 nM or 10 nM) or 5 μM STS for 48 h. Cells were harvested and stained with PI; cell cycle distribution were analyzed by flow cytometry. Cell cycle distribution and changes of subG1 fraction are illustrated. A) K562 cell line; B) NB4 cell line; C) PBMCs; n=2
(§2) After incubation, cells were harvested on ice and fixed in 80% ethanol at −20° C. for at least 1 h. Next, the cells were incubated with RNase for 30 min at room temperature, thereafter stained with propidium iodide (PI), and measured immediately with a flow cytometer. PI intercalates into DNA. In the different phases of the cell cycle, cells incorporate various amounts of PI. This allows the quantification of the cell cycle phases. The subG1 population represents the fraction of apoptotic/necrotic cells, which contains only fragmented DNA (DNA content <2N).
(§3) Additional experiments were performed to ensure the specificity of Marbotinib. Other human blood cell lines that carry no FLT3-ITD were stimulated with Marbotinib and analyzed. K562 cells derived from a patient with chronic myeloid leukemia. These cells are precursors from erythrocytes and carry a mutation of the tyrosine kinase BCR-ABL. The NB4 cells derived from a patient with acute promyelocytic leukemia and carry a mutation in the PML-RARA fusion protein (Noack, Mahendrarajah et al. 2016). Peripheral blood mononuclear cells (PBMCs) were freshly isolated from whole blood samples and used immediately for experiments. K562, NB4 and PBMCs were stimulated with different concentrations of Marbotinib for 48 h and cell cycle distribution was analyzed by flow cytometry. Marbotinib selectively leads to an increase of subG1 fraction only in FLT3-ITD positive cell lines (FIG. 3 and FIG. 4). Cell lines or cells that carry no FLT3-ITD are not affected by Marbotinib (FIG. 5).
(In general: In flow cytometry, cells or beads pass a laser one at a time.)

The next assay relates to NB4 cells. The assay is described as above. In kind it is cell-based, human. Particulars: NB4, 2, 5, 10 nM, 48 h. As for the experimental part: as §1, §2, §3
In assay [1] the test system is PBMCs. The assay is described as above. In kind it is cell-based, human. Particulars: PBMCs, 2, 5, 10 nM, 48 h. As for the experimental part:
as §1, §2, §3

Assay [2] relates to MV4-11 cells. The assay can be described thus: AnnexinV FITC/PI apoptosis staining, flow cytometry. Particulars: MV4-11, 2, 5, 10 nM, 24 h. In kind it is cell-based, human. As for the experimental part:
(§4) FIG. 6: […] Illustrated are the different populations of living cells, early apoptosis and late apoptosis/necrosis. To elucidate the apoptotic effects the population of cells in early apoptosis and late apoptosis/necrosis is represented in a separate diagram. A) MV4-11 cell line; B) PBMCs; n=1 To analyze apoptosis cells were treated as indicated and harvested on ice. Thereafter cells were stained with Annexin V FITC for 15 min on ice in the dark. After incubation time cells were stained with PI and measured immediately on flow cytometer. An Annexin V FITC and PI single stained sample was used for compensation and an unstained control sample was used to exclude autofluorescence. […] The subG1 fraction is only a hint for apoptosis therefore we stained MV4-11 cells and PBMCs for AnnexinV FITC/PI. This staining allows a differentiation between early apoptosis and late apoptosis. […] Treating FLT3-ITD positive cells with only 5 nM Marbotinib leads to a strong induction of apoptosis without affecting other cells or cell lines tested here.

For assay [3], the system named is PBMCs. The description is as above. Type of assay: cell-based, human. As to conditions: PBMCs, 2, 5, 10 nM, 24 h. Here is the method:
as §4

The subject of another assay is Ba/F3 ITD D835Y mutant. The assay can be described thus: FLT3 signaling in Ba/F3 mutants, Western blot. In kind it is cell-based, murine. As to conditions: 5 nM, 2 h. On the technique in general: Immunoblotting shows a protein as a band on a membrane.
Assay [4] has as its system MV4-11 cells. Put plainly: Vitality assay, DAPI staining, flow cytometry. Type of assay: cell-based, human. As to conditions: 1, 5, 10, 100 nM, 48 h; especially at 1 nM, 5 nM and 10 nM. Here is the method: FIG. 14: Results of vitality assay in which MV4-11 cells were exposed to FLT3-inhibitors Marbotinib, Marbotinib Carbamate and ACC220, at different concentrations, and cell viability staining was performed.
MV4-11 cells were treated with FLT3-inhibitors at different concentrations (1 nM, 5 nM, 10 nM, 100 nM) for 48 h. Viability staining was performed using life cell staining with DAPI. Samples were analysed using flow cytometry via FACS Canto; N=3.

The subject of a further assay is FLT3-ITD in MV4-11 cells. The assay can be described thus: Dephosphorylation of FLT3-ITD and downstream targets over time, Western blot. Type of assay: cell-based, human. As to conditions: 5 nM; 2 h, 6 h, 16 h, 24 h. An excerpt: Whole cell lysates were used for SDS-Page and Western blot. The blots show dephosporylation of FLT3-ITD and some of its downstream targets, cell cycle regulators, and DNA damage regulators after treatment with FLT3-inhibitors over time. GAPDH was used as loading control. Control is indicated as CTRL. Marbotinib is indicated as FLT3i3 and Marbotinib-Carbamat is indicated as FLT3i540.

In a further assay the test system is Ba/F3 ITD N676K mutant. The assay can be described thus: FLT3 signaling in Ba/F3 mutants, Western blot. As to conditions: 5 nM, 2 h.
The test system of assay [5] is FLT3-ITD in MOLM-13 cells. The assay can be described thus: FLT3-ITD signaling, Western blot of cell lysates. Particulars: MOLM-13, 5 nM.

The structures appear in SMILES notation.

Take `CC(C)(C)c1cc(NC(=O)Nc2ccc3oc(C(=O)c4cc5cc(O)ccc5[nH]4)cc3c2)no1` [Marbotinib, 1-(5-(tert-butyl)isoxazol-3-yl)-3-(2-(5-hydroxy-1H-indole-2-carbonyl)benzofuran-5-yl)urea]: the “cell cycle distribution / subG1 fraction” value in the assay with K562 cells, in the assay on NB4 cells and in the assay with PBMCs [1] was “not affected” throughout. Also, the “apoptosis (AnnexinV FITC/PI)” value in the assay on MV4-11 cells [2] is given as “clear induction of apoptosis”; with PBMCs [3], “no changes in basal apoptosis”. Further, the “signal of p-FLT3 and p-STAT5” value with Ba/F3 ITD D835Y mutant is reported as “strong reduction”. For the same compound, the “cell viability, efficacy compared with AC220” value in the assay with MV4-11 cells [4] was “more effective than compound AC220”. In addition, the “block of FLT3-ITD and its associated signaling cascades” value with FLT3-ITD in MV4-11 cells is on record as “effectively block”. Also, in the assay on Ba/F3 ITD N676K mutant, the “signal of p-FLT3” value is recorded as “strong reduction”. In addition, the “signal of p-STAT5” value with Ba/F3 ITD N676K mutant is “strong reduction”. The p-STAT5 result in [5] was “clear reduction”. Moreover, the p-FLT3-ITD entry in [5] (1 h) is on record as “clearly reduces”.

These data come from patent publication US11384076B2, “Synthesis, pharmacology and use of new and selective FMS-like tyrosine kinase 3 (FLT3) FLT3 inhibitors” (UNIVERSITÄT REGENSBURG, priority 2017, dated 2022).
